A word on the melting point: it is the temperature, or range, at which the solid turns liquid.

The record followed here is article PMC5500991, “Substituted arylsulphonamides as inhibitors of perforin-mediated lysis” (European Journal of Medicinal Chemistry, 2017).

SMILES strings stand for the structures. Where a name gives a salt, the structure may show the parent alone. Bounds are passed on as bounds.

Turning to `CN1Cc2cc(-c3ccc(-c4cccc(S(=O)(=O)Nc5ccccn5)c4)s3)ccc2C1=O` (as salt: sodium) [Compound 14, sodium ((3-(5-(2-methyl-1-oxoisoindolin-5-yl)thiophen-2-yl)phenyl)sulfonyl)(pyridin-2-yl)amide], the melting point was 302 to 306 °C.
Next, `COc1ccc(-c2ccc(-c3ccc4c(c3)CN(C)C4=O)s2)cc1S(=O)(=O)Nc1ccccn1` (as salt: sodium) [Compound 19, Sodium ((2-methoxy-5-(5-(2-methyl-1-oxoisoindolin-5-yl)thiophen-2-yl)phenyl)sulfonyl)(pyridin-2-yl)amide]: 322 to 325 °C; `COc1ccc(S(=O)(=O)Nc2cncc(-c3ccc(-c4ccc5c(c4)CN(C)C5=O)s3)c2)cc1OC` (as salt: sodium) [Compound 40, 3,4-Dimethoxy-N-(5-(5-(2-methyl-1-oxoisoindolin-5-yl)thiophen-2-yl)pyridin-3-yl)benzenesulfonamide, sodium salt]: 240 to 244 °C.
Next, `CN1Cc2cc(-c3ccc(-c4cncc(NS(=O)(=O)c5ccc(S(C)(=O)=O)cc5)c4)s3)ccc2C1=O` (as salt: sodium) [Compound 57, Sodium (5-(5-(2-methyl-1-oxoisoindolin-5-yl)thiophen-2-yl)pyridin-3-yl)((4-(methylsulfonyl)phenyl)sulfonyl)amide]: > 300 °C.
Next, `CN1Cc2cc(-c3ccc(-c4ccnc(NS(=O)(=O)c5ccc(F)cc5F)c4)s3)ccc2C1=O` [Compound 5, 2,4-Difluoro-N-(4-(5-(2-methyl-1-oxoisoindolin-5-yl)thiophen-2-yl)pyridin-2-yl)benzenesulfonamide]: 235 to 239 °C; `CN1Cc2cc(-c3ccc(-c4cncc(N(C)S(=O)(=O)c5ccc(F)cc5F)c4)s3)ccc2C1=O` [Compound 6, 2,4-Difluoro-N-methyl-N-(5-(5-(2-methyl-1-oxoisoindolin-5-yl)thiophen-2-yl)pyridin-3-yl)-benzenesulphonamide]: 200 to 202 °C; `CN1Cc2cc(-c3ccc(-c4cncc(S(=O)(=O)Nc5ccc(F)cc5F)c4)s3)ccc2C1=O` [Compound 7, N-(2,4-Difluorophenyl)-5-(5-(2-methyl-1-oxoisoindolin-5-yl)thiophen-2-yl)pyridine-3-sulphonamide]: 221 to 224 °C.
For `CN1Cc2cc(-c3ccc(-c4cccc(NS(=O)(=O)c5ccc(F)cc5F)c4)s3)ccc2C1=O` [Compound 9, 2,4-Difluoro-N-(3-(5-(2-methyl-1-oxoisoindolin-5-yl)thiophen-2-yl)phenyl)benzene sulphonamide], the melting point lay in the range of 260 to 262 °C.
For `COc1ncc(-c2ccc(-c3ccc4c(c3)CN(C)C4=O)s2)cc1NS(=O)(=O)c1ccc(F)cc1F` [Compound 12, 2,4-Difluoro-N-(2-methoxy-5-(5-(2-methyl-1-oxoisoindolin-5-yl)-thiophen-2-yl)pyridin-3-yl)benzenesulphonamide], the melting point was 224 to 227 °C.
Next, `Cc1ccc(NS(=O)(=O)c2ccccn2)cc1-c1ccc(-c2ccc3c(c2)CN(C)C3=O)s1` [Compound 15, N-(4-Methyl-3-(5-(2-methyl-1-oxoisoindolin-5-yl)thiophen-2-yl)phenyl)pyridine-2-sulfonamide]: 274 to 277 °C; `CN1Cc2cc(-c3ccc(-c4ccc(OC(F)(F)F)c(NS(=O)(=O)c5ccccn5)c4)s3)ccc2C1=O` [Compound 18, N-(5-(5-(2-Methyl-1-oxoisoindolin-5-yl)thiophen-2-yl)-2-(trifluoromethoxy)phenyl)pyridine-2-sulfonamide]: 200 to 201 °C.
Then `CN1Cc2cc(-c3ccc(-c4cncc(NS(=O)(=O)c5ccccc5)c4)s3)ccc2C1=O` [Compound 21, N-(5-(5-(2-Methyl-1-oxoisoindolin-5-yl)thiophen-2-yl)pyridin-3-yl)benzenesulphonamide], with 300 to 303 °C; and `CN1Cc2cc(-c3ccc(-c4cncc(NS(=O)(=O)c5ccccc5F)c4)s3)ccc2C1=O` [Compound 22, 2-Fluoro-N-(5-(5-(2-methyl-1-oxoisoindolin-5-yl)thiophen-2-yl)pyridin-3-yl)benzenesulfonamide], with 289 to 292 °C; and `CN1Cc2cc(-c3ccc(-c4cncc(NS(=O)(=O)c5cccc(F)c5)c4)s3)ccc2C1=O` [Compound 23, 3-Fluoro-N-(5-(5-(2-methyl-1-oxoisoindolin-5-yl)thiophen-2-yl)pyridin-3-yl)benzenesulfonamide], with 292 to 294 °C.
Next, `CN1Cc2cc(-c3ccc(-c4cncc(NS(=O)(=O)c5ccc(F)cc5)c4)s3)ccc2C1=O` [Compound 24, 4-Fluoro-N-(5-(5-(2-methyl-1-oxoisoindolin-5-yl)thiophen-2-yl)pyridin-3-yl)benzenesulfonamide]: 272 to 274 °C; `CN1Cc2cc(-c3ccc(-c4cncc(NS(=O)(=O)c5ccc(F)c(F)c5)c4)s3)ccc2C1=O` [Compound 25, 3,4-Difluoro-N-(5-(5-(2-methyl-1-oxoisoindolin-5-yl)thiophen-2-yl)pyridin-3-yl)benzenesulfonamide]: 282 to 285 °C.
`CN1Cc2cc(-c3ccc(-c4cncc(NS(=O)(=O)c5ccccc5Cl)c4)s3)ccc2C1=O` [Compound 27, 2-Chloro-N-(5-(5-(2-methyl-1-oxoisoindolin-5-yl)thiophen-2-yl)pyridin-3-yl)benzenesulfonamide] yielded a melting point of 299 to 303 °C.
Next, `CN1Cc2cc(-c3ccc(-c4cncc(NS(=O)(=O)c5cccc(Cl)c5)c4)s3)ccc2C1=O` [Compound 28, 3-Chloro-N-(5-(5-(2-methyl-1-oxoisoindolin-5-yl)thiophen-2-yl)pyridin-3-yl)benzenesulfonamide]: 291 to 295 °C.
Regarding `CN1Cc2cc(-c3ccc(-c4cncc(NS(=O)(=O)c5ccc(Cl)cc5)c4)s3)ccc2C1=O` [Compound 29, 4-Chloro-N-(5-(5-(2-methyl-1-oxoisoindolin-5-yl)thiophen-2-yl)pyridin-3-yl)benzenesulfonamide], the melting point fell in the range of 281 to 284 °C.
Then `CN1Cc2cc(-c3ccc(-c4cncc(NS(=O)(=O)c5ccc(Cl)c(Cl)c5)c4)s3)ccc2C1=O` [Compound 30, 3,4-Dichloro-N-(5-(5-(2-methyl-1-oxoisoindolin-5-yl)thiophen-2-yl)pyridin-3-yl)benzenesulfonamide], with 256 to 259 °C; and `CN1Cc2cc(-c3ccc(-c4cncc(NS(=O)(=O)c5ccc(Cl)cc5Cl)c4)s3)ccc2C1=O` [Compound 31, 2,4-Dichloro-N-(5-(5-(2-methyl-1-oxoisoindolin-5-yl)thiophen-2-yl)pyridin-3-yl)benzenesulfonamide], with 282 to 285 °C; and `CN1Cc2cc(-c3ccc(-c4cncc(NS(=O)(=O)c5ccccc5Br)c4)s3)ccc2C1=O` [Compound 32, 2-Bromo-N-(5-(5-(2-methyl-1-oxoisoindolin-5-yl)thiophen-2-yl)pyridin-3-yl)benzenesulfonamide], with 289 to 293 °C.
For `CN1Cc2cc(-c3ccc(-c4cncc(NS(=O)(=O)c5cccc(Br)c5)c4)s3)ccc2C1=O` [Compound 33, 3-Bromo-N-(5-(5-(2-methyl-1-oxoisoindolin-5-yl)thiophen-2-yl)pyridin-3-yl)benzenesulfonamide], the melting point was in the range of 303 to 307 °C.
Take `CN1Cc2cc(-c3ccc(-c4cncc(NS(=O)(=O)c5ccc(Br)cc5)c4)s3)ccc2C1=O` [Compound 34, 4-Bromo-N-(5-(5-(2-methyl-1-oxoisoindolin-5-yl)thiophen-2-yl)pyridin-3-yl)benzenesulfonamide]: the melting point is 276 to 279 °C.
Regarding `CN1Cc2cc(-c3ccc(-c4cncc(NS(=O)(=O)c5ccc(Br)cc5Br)c4)s3)ccc2C1=O` [Compound 35, 2,4-Dibromo-N-(5-(5-(2-methyl-1-oxoisoindolin-5-yl)thiophen-2-yl)pyridin-3-yl)benzenesulfonamides], the melting point is 276 to 279 °C.
As for `CN1Cc2cc(-c3ccc(-c4cncc(NS(=O)(=O)c5ccc(I)cc5)c4)s3)ccc2C1=O` [Compound 36, 4-Iodo-N-(5-(5-(2-methyl-1-oxoisoindolin-5-yl)thiophen-2-yl)pyridin-3-yl)benzenesulfonamides], the melting point lay within 295 to 298 °C.
`COc1ccccc1S(=O)(=O)Nc1cncc(-c2ccc(-c3ccc4c(c3)CN(C)C4=O)s2)c1` [Compound 37, 2-Methoxy-N-(5-(5-(2-methyl-1-oxoisoindolin-5-yl)thiophen-2-yl)pyridin-3-yl)benzenesulfonamide] yielded a melting point of 273 to 276 °C.
Then `COc1cccc(S(=O)(=O)Nc2cncc(-c3ccc(-c4ccc5c(c4)CN(C)C5=O)s3)c2)c1` [Compound 38, 3-Methoxy-N-(5-(5-(2-methyl-1-oxoisoindolin-5-yl)thiophen-2-yl)pyridin-3-yl)benzenesulfonamide], with 278 to 280 °C; and `COc1ccc(S(=O)(=O)Nc2cncc(-c3ccc(-c4ccc5c(c4)CN(C)C5=O)s3)c2)cc1` [Compound 39, 4-Methoxy-N-(5-(5-(2-methyl-1-oxoisoindolin-5-yl)thiophen-2-yl)pyridin-3-yl)benzenesulfonamide], with 254 to 258 °C; and `CN1Cc2cc(-c3ccc(-c4cncc(NS(=O)(=O)c5ccccc5OC(F)(F)F)c4)s3)ccc2C1=O` [Compound 41, N-(5-(5-(2-Methyl-1-oxoisoindolin-5-yl)thiophen-2-yl)pyridin-3-yl)-2-(trifluoromethoxy)benzenesulfonamide], with 251 to 254 °C.
Next, `CN1Cc2cc(-c3ccc(-c4cncc(NS(=O)(=O)c5cccc(OC(F)(F)F)c5)c4)s3)ccc2C1=O` [Compound 42, N-(5-(5-(2-Methyl-1-oxoisoindolin-5-yl)thiophen-2-yl)pyridin-3-yl)-3-(trifluoromethoxy)benzenesulfonamide]: 230 to 232 °C; `CN1Cc2cc(-c3ccc(-c4cncc(NS(=O)(=O)c5ccc(OC(F)(F)F)cc5)c4)s3)ccc2C1=O` [Compound 43, N-(5-(5-(2-Methyl-1-oxoisoindolin-5-yl)thiophen-2-yl)pyridin-3-yl)-4-(trifluoromethoxy)benzenesulfonamide]: 293 to 296 °C.
